Data set [1] is described as follows: Dose-limiting toxicities in cycle 1 and determination of MTD/RP2D (phase I dose escalation). Type of data set: in vivo. As to conditions: for n with DLTs during cycle 1: N = 6. How it is done: This study comprised two parts: a phase I dose escalation and a phase II dose expansion (Fig. 1). In the dose-escalation phase, patients were enrolled to receive subasumstat intravenously as a 1-hour (±10 minutes) infusion on days 1, 4, 8, and 11 of a 21-day cycle (biweekly schedule). […] Dose escalation was based on cohort with an adaptive design using Bayesian logistic regression modeling with overdose control. The starting dose of subasumstat was based on Good Laboratory Practice animal toxicity studies and supported by the estimation of a minimum anticipated biologically effective level. A detailed description of dose-limiting toxicities (DLT) is presented in the Supplementary Methods.
The occurrence of DLTs was assessed during cycle 1 (DLTs are described in the Supplementary Methods). Treatment-emergent adverse events (TEAE) were graded according to NCI Common Terminology Criteria for Adverse Events version 5.0, except for cytokine release syndrome (CRS), which was graded according to the American Society for Transplantation and Cellular Therapy Consensus Grading for CRS ([20]).
It was anticipated that approximately 70 DLT-evaluable patients would be enrolled for dose escalation. The safety analysis set included all patients who received at least one dose, even if incomplete, of subasumstat. […] The overall response rate (ORR) was defined as the proportion of patients who achieved complete response and partial response (PR) during the study. The disease control rate (DCR) was defined as the proportion of patients who achieved […] as per RECIST v1.1 for solid tumors or Lugano classification for lymphomas. […] Progression-free survival was summarized descriptively using the Kaplan–Meier method.
17. History of allogeneic tissue or solid organ transplant.
18. Second malignancy within the previous 3 years, except treated basal cell or localized squamous skin carcinomas, localized prostate cancer, cervical carcinoma in situ, resected colorectal adenomatous polyps, breast cancer in situ, or other malignancy for which the patient is not on active anticancer therapy.
19. Female patients who are lactating and breastfeeding or have a positive serum pregnancy test during the screening period or a positive urine pregnancy test on day 1 before first dose of study drug.
Definition of dose-limiting toxicities (DLTs) for phase I only
DLTs were defined as any AEs occurring in cycle 1 (unless considered unrelated to the study drug) with the following characteristics:
2. Nonfebrile grade 4 neutropenia (absolute neutrophil count [ANC] <0.5 ×
If myeloid growth factors are used, the event will be considered as DLT irrespective of the duration. […]
temperature of ≥38°C for ≥1 hour.
4. Grade 4 thrombocytopenia lasting ≥7 consecutive days. A platelet count <10
5. Grade 3 thrombocytopenia lasting longer than 14 days or accompanied by grade 2 bleeding or requiring transfusion.
6. Delay in the initiation of cycle 2 by ≥14 days due to a lack of adequate recovery of treatment-related hematological or nonhematologic toxicities.
7. Grade ≥3 nonhematologic toxicity with the following exceptions:
• Grade 3 arthralgia/myalgia that responds to nonsteroidal anti-inflammatory […]
• Grade 3 fatigue lasting fewer than 7 days.
• Grade 3 endocrine disorder that is managed with or without therapy and the patient is asymptomatic.
• Grade 3 or 4 inflammatory reaction attributed to a local antitumor […]
• Grade 3 infusion-related actions that resolves within 6 hours with appropriate clinical management.
• Grade 3 cytokine release syndrome that resolves to grade ≤1 in less than 7 days without end-organ damage.
• Asymptomatic laboratory changes (other than renal and hepatic laboratory values) that can be successfully supplemented (reversion of grade 4

For data set [2], the system named is NK cells and T cells. The data set is described as follows: NK- and T-cell activation (CD69+ cells) in peripheral blood by flow cytometry. The data set is classed as in vivo, human. Here is the method:
Blood samples for subasumstat–SUMO adduct formation and SUMO2/3 inhibition assessments were collected before dose and at 1, 4, and 8 hours after the infusion on C1D1 and C1D8. Blood samples for additional biomarker analyses were collected before dose on C1D1 and C1D8 and at 4, 8, and 24 hours after infusion on C1D1 and C1D8. Skin biopsies (used as surrogate tissue for solid tumors) were collected at screening and on C1D8 at 2 hours (±30 minutes) after end of infusion, and tumor biopsies were collected at screening and cycle 2 day 8 (C2D8; +7 days; whenever possible). […] Activation of the IFNI pathway was assessed in peripheral blood by analysis of gene expression data (PanCancer IO 360 panel by NanoString for phase I and whole-transcriptome RNA sequencing data for phase II). […] These seven IFNI-regulated genes were selected prior to the trial, based on in vitro studies of the effect of subasumstat on human blood from 10 healthy donors analyzed on the NanoString PanCancer IO 360 panel. Plasma chemokines and cytokines were measured using the MesoScale Discovery platform (pro-inflammatory and chemokine panels, BioAgilytix). […] Tumor PD-L1 expression level was assessed in paired tumor biopsies using the 22C3 PD-L1 IHC assay; combined positive score (CPS) was calculated for baseline and on-treatment tumor samples. […]

“Also recorded” adds a separate entry of the source.

As for `Cc1sc(C(=O)c2cncnc2N[C@@H]2C[C@H](COS(N)(=O)=O)[C@@H](O)C2)cc1[C@@H]1NCCc2ccc(Cl)cc21` [subasumstat], the “n with DLTs during cycle 1” value in data set [1] (60 mg BIW) is listed as 1; in data set [1] (90 mg BIW), 1; in data set [1] (120 mg BIW) it was 2. In addition, the “Description of DLT” value is “Transient grade 3 ALT/AST” in data set [1] (60 mg BIW, subasumstat reduced to 40 mg BIW); “Grade 3 pneumonitis” in data set [1] (90 mg BIW, study treatment discontinued); “Grade 3 stomatitis; also recorded: Grade 3 cognitive disorder” in data set [1] (120 mg BIW, n = 1 each). For the same molecule, the “Biologically / pharmacodynamically active dose” value in data set [1] (across a range of pharmacodynamic measures) was at least 60 mg. In data set [1] (phase I, 74 of 84 DLT-evaluable, all in twice weekly cohorts), the “Patients reporting DLTs” value was “four”. The molecule also returned an MTD in data set [1] (twice weekly (days 1, 4, 8, 11 of 21-day cycle), intravenous) of 120 mg. Moreover, the “Recommended phase II dose (RP2D)” value in data set [1] (twice weekly, intravenous) is given as 90 mg. The “Time of peak CD69+ effect after infusion” value in data set [2] (C1D1 and C1D8) was 24 h. Also, the “Dose from which percentage of CD69+ NK and T cells increased” value in data set [2] (peripheral blood, both dose schedules and study phases) is given as at least 60 mg.
